Assay results as given in patent publication US4463005A, “Bicyclic guanidines” (Imperial Chemical Industries PLC, priority 1981, dated 1984).

Legend:
[1] = tested on: conscious mice; experiment: intravenous toxicity in conscious mice; assay type: in vivo; conditions: four conscious mice, one hundred times the dose giving approximate 50% inhibition of gastric secretion in the anaesthetised rat
Method: (§1) No overt toxicity or side effects were noted during the rat or dog tests. The compound 4-[3-(4-[2-(2,2,2-trifluoroethyl)guanidino]pyrimid-2-ylthio)propyl]-imidazole was administered intravenously to groups of two anaesthetised rats and four conscious mice at doses which were respectively ten times and one hundred times the dose, in mg./kg., which produced an approximate 50% inhibition of gastric secretion in the anaesthetised rat.

[2] = tested on: anaesthetised rats; experiment: intravenous toxicity in anaesthetised rats; assay type: in vivo; conditions: two anaesthetised rats, ten times the dose giving approximate 50% inhibition of gastric secretion in the anaesthetised rat
Method: as §1

SMILES: NC(=NCC(F)(F)F)Nc1ccnc(SCCCc2c[nH]cn2)n1.O=C(O)/C=C\C(=O)O [Example 2, 4-[3-(4-[2-(2,2,2-trifluoroethyl)guanidino]pyrimid-2-ylthio)propyl]imidazole dihydrogen maleate]
- toxic symptoms [1]: No toxic symptoms were noted
- toxic symptoms [2]: No toxic symptoms were noted
